This is an account of results in ChEMBL document CHEMBL2016566, “Melanogenesis inhibitory bisabolane-type sesquiterpenoids from the roots of Angelica koreana” (Bioorg Med Chem Lett, 2012).

The structures appear in SMILES notation. Converted amounts (≈) assume the structure as drawn.

One may read the IC50 as the concentration that inhibits the measured activity by half.

For series [1], the system named is B16. Nature of the series: Inhibition of alpha-MSH-stimulated melanogenesis in mouse B16 cells assessed as melanin release after 72 hrs. In kind it is functional, cell-based. The settings on record: for IC50: B16, 72 h.
Series [2] has as its system B16. Nature of the series: Cytotoxicity against mouse B16 cells assessed as cell viability. Type of series: cell-based.

For `OC[C@H]1O[C@@H](Oc2ccc(O)cc2)[C@H](O)[C@@H](O)[C@@H]1O` [ARBUTIN], in the series on B16 [1], the IC50 is 67.9 µg/mL (≈ 249 µM).
`CC(C)=C/C=C1\O[C@@H]2CC(C)=CC(=O)[C@@H]2[C@]1(C)O` [BISABOLANGELONE]: in the series with B16 [1], the inhibition entry is “Dose-dependent effect” and the IC50 is 5.3 µg/mL (≈ 21.3 µM). Also, in the series with B16 [2], the Activity result is reported as “Non-toxic”.
The corresponding values for `C/C=C(/C)C(=O)O[C@H]1Cc2cc3ccc(=O)oc3cc2OC1(C)C` [DECURSINOL ANGELATE] are “Dose-dependent effect”, 5.8 µg/mL (≈ 17.7 µM) and “Non-toxic”.
For the compound `C=C[C@@H](O)C#CC#C[C@@H](O)/C=C\CCCCCCC` [FALCARINDIOL], in the series on B16 [1], the inhibition result is “Dose-dependent effect” and the IC50 amounted to 2.9 µg/mL (≈ 11.1 µM). The Activity result in the series on B16 [2] is “Non-toxic”.
As for `O=c1cc(CO)occ1O` [KOJIC ACID], the IC50 with B16 [1] is 5.5 µg/mL (≈ 38.7 µM).
Consider `CO[C@@]1(/C=C/C(C)(C)O)O[C@H]2CC(C)=CC(=O)[C@H]2[C@@]1(C)O` [OSTERIVOLONE A], for which, in the series on B16 [1], the inhibition result was “Dose-dependent effect” and the IC50 amounted to 1.1 µg/mL (≈ 3.71 µM). In addition, the Activity entry in the series on B16 [2] is reported as “Non-toxic”.
`COC(C)(C)/C=C/[C@]1(OC)O[C@H]2CC(C)=CC(=O)[C@H]2[C@@]1(C)O` [OSTERIVOLONE B]: in the series with B16 [1], the inhibition result was “Dose-dependent effect” and the IC50 amounted to 5.6 µg/mL (≈ 18 µM). Moreover, the Activity result with B16 [2] is “Non-toxic”.
The corresponding values for `CO[C@@]1(C(C=C(C)C)OC(C=C(C)C)[C@]2(O)O[C@H]3CC(C)=CC(=O)[C@H]3[C@@]2(C)O)O[C@H]2CC(C)=CC(=O)[C@H]2[C@@]1(C)O` (some centres undefined) [OSTERIVOLONE C] are “Dose-dependent effect”, 4.5 µg/mL (≈ 8.03 µM) and “Non-toxic”.
On to `CC(C)=C/C=C1\O[C@H]2C[C@](C)(O)CC(=O)[C@H]2[C@@]1(C)O` [OSTERIVOLONE D], for which, in the series on B16 [1], the inhibition result was “Dose-dependent effect” and the IC50 was 1.9 µg/mL (≈ 7.13 µM). The Activity result in the series with B16 [2] is reported as “Non-toxic”.
Turning to `O=c1ccc2cc3ccoc3cc2o1` [PSORALEN], the IC50 with B16 [1] is above 200 µg/mL.
